Source: patent publication US10849966B2, “Methods for treating netosis and neutrophil activation” (TRUSTEES OF BOSTON UNIVERSITY, priority 2017, dated 2020)
Entries after “also recorded” stand apart in the source; their conditions may differ.

Experiments:
[1] = test system: chronic kidney disease in Dahl S female rats; assay: CKD in Dahl S female rats fed a HSD; format: in vivo, rat; details: for albuminuria, effect in words / urinary albumin creatinine ratio (UACR), effect in words: 3 mg/kg iv × 1 dose, after 7 days, moderate-severe CKD; for Albuminuria / Creatinine Clearance / UACR (urinary albumin/urinary creatinine ratio) / Urinary Exosome Excretion: Mean ± SD
Text: Legend: hu-6g8, humanized anti-DEspR monoclonal antibody, HSD, high salt diet induced via 2% NaCl water to drink ad lib; CKD, Dahl salt-sensitive hypertensive rats with chronic kidney disease with moderate nephrosclerosis (Raij scores˜300) induced with a high salt diet (2% NaCl); control, non-treated age- and sex-matched CKD rats.

[2] = test system: DEspR+/CD11b+ neutrophils; assay: ex vivo treatment of ARDS patient whole blood, neutrophil survival (FACS); format: cell-based, human; set-up: baseline DEspR+/CD11b+ neutrophil percentage: concentration or dose not given beside the values; details: for Observed decrease in neutrophil survival: 10 μg/ml; for baseline DEspR+/CD11b+ neutrophil percentage: equals baseline DEspR+/CD11b+ neutrophils
Procedure: Neutrophils were gated for unique size/granularity properties via FSC (size) and SSC (granularity) gating. […] FSC, forward side scatter. SSC, side scatter. N=4-5 replicates; mean+/−SD. Whole blood incubated at 37 C for 24 hours (reg incubator, rotating, in HEPES buffer) for A02 and A03. 37 C for 6 hours for A04, A05, and A06. ABTM-468(cho) at 10 ug/mL. *, P=0.0286 Mann-Whitney Rank Sum Test. ARDS patients survivors: A01, A04, A05, A06. ARDS non-survivor: A02.

Panc1 xenograft = Panc1 xenograft model survival; details: in vivo
[3] = complete blood counts in Panc1-CSC xenograft (CDX) tumor model; format: in vivo, rat; details: CBC weekly from day 21, vs non-treated controls
Procedure: Complete blood counts (CBC) were measured weekly starting day 21-1 week after treatment onset on day 14 (14 days after Panc1-CSC xenograft (CDX) tumor establishment).

[4] = test system: chronic kidney disease in Tg25+ male rats; assay: CKD in Tg25+ male rats fed a HSD; format: in vivo, rat; details: hu-6g8 3 mg/kg IV at D0, D7, D14 and D21, Mean ± SD

hu-6g8: fully humanized anti-DEspR mAb with a S228P hinge-stabilized IgG4/kappa FC region
albuminuria, effect in words [1]: decreased
urinary albumin creatinine ratio (UACR), effect in words [1]: decreased
albuminuria, effect in words ([1]; listed as ABTM-468): decreased; also recorded: reduced
urinary albumin creatinine ratio (UACR), effect in words ([1]; listed as ABTM-468): decreased; also recorded: reduced
Albuminuria ([1]; D7 (day of dosing, baseline)): 404 ± 190 mg/kg/day
Creatinine Clearance ([1]; D7 (day of dosing, baseline)): 104 ± 35 µL/min
UACR (urinary albumin/urinary creatinine ratio) ([1]; D7 (day of dosing, baseline)): 25450 ± 8980
Urinary Exosome Excretion ([1]; D7 (day of dosing, baseline)): 663 ± 224 mg/kg/day
Albuminuria ([1]; D14, hu-6g8 3 mg/kg IV at D7): 92.5 ± 95 mg/kg/day
Creatinine Clearance ([1]; D14, hu-6g8 3 mg/kg IV at D7): 168 ± 118 µL/min
UACR (urinary albumin/urinary creatinine ratio) ([1]; D14, hu-6g8 3 mg/kg IV at D7): 2285 ± 2337
Urinary Exosome Excretion ([1]; D14, hu-6g8 3 mg/kg IV at D7): 876 ± 348 mg/kg/day
Observed decrease in neutrophil survival ([2]; patient A02 (Died), incubation 24 hrs, 79 hrs from ARDS diagnosis, baseline DEspR+/CD11b+ 59.2%, P 0.029, listed as anti-DEspR humanized IgG4S228P antibody): decreased survival
baseline DEspR+/CD11b+ neutrophil percentage ([2]; patient A02): 59.2%
Observed decrease in neutrophil survival ([2]; patient A03 (DNR, D.), incubation 24 hrs, 96 hrs from diagnosis, baseline DEspR+/CD11b+ 1.5%): No effect
baseline DEspR+/CD11b+ neutrophil percentage ([2]; patient A03): 1.5%
Observed decrease in neutrophil survival ([2]; patient A04 (Surv), incubation 6 hrs, 96 hrs from diagnosis, baseline DEspR+/CD11b+ 0.9%, listed as ABTM-468): No effect
Observed decrease in neutrophil survival ([2]; patient A04 (Surv), incubation 6 hrs, 96 hrs from diagnosis, baseline DEspR+/CD11b+ 0.9%, listed as anti-DEspR humanized IgG4S228P antibody): no effect
baseline DEspR+/CD11b+ neutrophil percentage ([2]; patient A04): 0.9%
Observed decrease in neutrophil survival ([2]; patient A05 (Surv), incubation 6 hrs, 72 hrs from diagnosis, baseline DEspR+/CD11b+ 3%, listed as ABTM-468): No effect
Observed decrease in neutrophil survival ([2]; patient A05 (Surv), incubation 6 hrs, 72 hrs from diagnosis, baseline DEspR+/CD11b+ 3%, listed as anti-DEspR humanized IgG4S228P antibody): no effect
baseline DEspR+/CD11b+ neutrophil percentage ([2]; patient A05): 3%
Observed decrease in neutrophil survival ([2]; patient A06 (Surv), incubation 6 hrs, 48 hrs from diagnosis, baseline DEspR+/CD11b+ 16.1%, n.s., listed as anti-DEspR humanized IgG4S228P antibody): Some efficacy is observed but variable
baseline DEspR+/CD11b+ neutrophil percentage ([2]; patient A06): 16.1%
survival (Panc1 xenograft): increased survival
numbers of quiescent neutrophils (neutropenia side effect) ([3]; treatment onset day 14): does not cause decreased numbers of quiescent neutrophils
platelet counts [3]: does not cause decreased platelet counts
red blood cell counts [3]: does not cause decreased platelet counts or red blood cell counts
Albuminuria ([4]; D14): 217 ± 87 mg/kg/day
Creatinine Clearance ([4]; D14): 279 ± 82 µL/min
UACR (urinary albumin/urinary creatinine ratio) ([4]; D14): 8309 ± 3731
Urinary Exosome Excretion ([4]; D14): 771 ± 220 mg/kg/day
Albuminuria ([4]; D28): 164.8 ± 86 mg/kg/day
Creatinine Clearance ([4]; D28): 268 ± 30 µL/min
UACR (urinary albumin/urinary creatinine ratio) ([4]; D28): 5567 ± 2210
Urinary Exosome Excretion ([4]; D28): 651 ± 191 mg/kg/day
